Three molecules from patent US12558343B2, “Medical use of icaritin” (Lunan Pharmaceutical Group Corporation, priority 2020, dated 2026) can be followed below.

Data set [1] has as its system prolonged bleeding time caused by heparin sodium. The experiment in a line: Tail-cut bleeding time in mice, prolonged by heparin sodium. Type of data set: in vivo, ICR mice. To be noted: group P, 200 mg/kg i.p. once a day 5 days; heparin sodium 150 U/kg i.v. The text has this:
72 ICR mice aged 5-6 weeks, weighing 19-21 g, and half male and half female were selected. The mice were quarantined for 7 days after entering a laboratory and healthy mice were selected as test animals. The mice were weighed on first and last days of quarantine. According to the body weight on the last day of the quarantine, the male and female animals were divided into six groups by a simplified random method, namely, a normal group (C), a model group (V), low-, medium- and high-dose icaritin groups (2, 6, and 18 mg/kg, L, M, H) and a positive control drug group (200 mg/kg of etamsylate, P).
(§1) After 15 min of the modeling, the tails of the mice were cut and bleeding time of each mouse was measured.

Data set [2] has as its system prolonged bleeding time caused by aspirin. The experiment in a line: Tail-cut bleeding time in mice, prolonged by aspirin. As to conditions: group P, 200 mg/kg i.p. once a day 5 days; aspirin 20 mg/kg i.g. Type of data set: in vivo, ICR mice. How it is done:
According to the body weight on the last day of the quarantine, the male and female animals were divided into six groups by a simplified random method, namely, a normal group (C), a model group (V), icaritin low-, medium- and high-dose groups (2, 6, and 18 mg/kg, L, M, H) and a positive control drug group (200 mg/kg of etamsylate, P).
as §1

The conditions of data set [3]: mouse, in vivo, ip, 200 mg/kg.
Procedure: (§7) After the grouping, the mice in the normal group and the model group were intragastrically administrated with 10 ml/kg of an icaritin solvent which was prepared by adding 12 g of hypromellose E5 and 0.1 g of sodium lauryl sulfate into 1 L of water. […] One hour after the last pre-administration, the mice in the model group and each administration group were injected with 150 U/kg of a heparin sodium injection through a tail vein to establish a model, and the mice in the normal group were injected with 10 ml/kg of a sodium chloride injection through a tail vein.
(§8) After the bleeding time was detected, the mice were anesthetized with sodium pentobarbital, blood was collected from an abdominal cardinal vein, and indicators of blood routine examination and four coagulation indicators (prothrombin time, thromboplastin time, thrombin time, and fibrinogen) were detected.
For data set [4] the following is noted: mouse, in vivo, ip, 200 mg/kg. The source holds these as a separate data set.
Procedure: as §7, §8
Data set [5] relates to gastric bleeding caused by thrombolytic drug. More on the design: species or system SD rats. As to conditions: rat, in vivo. Here is the method: (§2) An animal model of thromboembolic cerebral ischemia was prepared by blocking a middle cerebral artery with an autologous thrombus combined with a suture occlusion method, and a catheter was indwelled.
24 h after the arterial administration, the rats in each group were anesthetized and dissected. The number of bleeding cases was observed under naked eyes and a light microscope, and a ratio of the number of bleeding cases to the total number was calculated.

The subject of a further data set is gastric injury. More on the design: species or system SD rats. To be noted: rat, in vivo. How it is done: as §2
The left lung and gastric antrum were excised, fixed with 100 g/L of a neutral formaldehyde solution, and dehydrated conventionally to be transparent, the dehydrated tissue was dipped with wax and embedded, the embedded tissue was sectioned and stained, and pathological changes were observed under a light microscope. A damage degree was graded according to a degree of tissue congestion, edema and cell degeneration from mild to severe: grade I: 0%-25%, grade II: 26%-50%, grade III: 51%-75%, and grade IV: >75% (bleeding was observed under the microscope).

Data set [6] concerns hemorrhagic transformation model induced by clopidogrel combined with cerebral ischemia-reperfusion. Kind of data set: Hemorrhagic transformation after cerebral ischemia-reperfusion (MCAO) caused by clopidogrel, bleeding rate. Type of data set: in vivo, ICR mice. As to conditions: 12 mg/kg i.g. Day 1-3 with clopidogrel 15 mg/kg; 24 h after MCAO; of 8 (icaritin) or 7 (icariin) animals. Here is the method: (§3) 5-week-old ICR male mice were fed to 6-week-old and divided into a control group, a model group, an icaritin-3 mg/kg group, an icaritin-6 mg/kg group, an icaritin-12 mg/kg group, and an icariin-12 mg/kg group according to body weight. From day 1 to day 3 after the grouping, the mice in each icaritin group were separately intragastrically administrated with 3, 6, and 12 mg/kg of icaritin and the mice in the icariin group was intragastrically administrated with 12 mg/kg of icariin once a day, and the mice in other groups were intragastrically administrated with a corresponding vehicle; and except the control group, the mice in other groups were intragastrically administrated with aspirin (100 mg/kg) or clopidogrel (15 mg/kg) once a day at a volume of 10 mL/kg.
(§4) On day 3, 10 min after the administration, the mice were anesthetized by intraperitoneal injection of 70 mg/kg of pentobarbital sodium and subjected to a cerebral ischemia-reperfusion (middle cerebral artery occlusion, MCAO) surgery with ischemia for 1 h and reperfusion for 23 h.
(§5) 24 h after the surgery was an end point of the experiment.
(§6) Bleeding rate: the mice were anesthetized by intraperitoneal injection of 70 mg/kg of pentobarbital sodium, a brain tissue was taken out, cerebral hemorrhage was recorded and a bleeding rate of the mice in each group was calculated. Cerebral hemorrhage rate %=number of animals with cerebral hemorrhage/number of surviving animals in each group×100.

The subject of data set [7] is hemorrhagic transformation model induced by aspirin combined with cerebral ischemia-reperfusion. The experiment in a line: Hemorrhagic transformation after cerebral ischemia-reperfusion (MCAO) caused by aspirin, bleeding rate. Type of data set: in vivo, ICR mice. To be noted: 12 mg/kg i.g. Day 1-3 with aspirin 100 mg/kg; 24 h after MCAO; of 9 (icaritin) or 8 (icariin) animals. Here is the method: as §3, §4, §5, §6

Regarding `O=S(=O)(O)c1cc(O)ccc1O` [Etamsylate, reference compound], the Bleeding time in data set [1] was 21.4 ± 6.7^$ min. In data set [2], the Bleeding time is on record as 26.4 ± 6.4^$ min. Moreover, in data set [3], the Number of erythrocytes is reported as 6.998 ± 0.871 10^12/L, the Number of leukocytes is reported as 1.903 ± 0.221 10^9/L and the Number of platelets is 1097 ± 114 10^9/L. Besides, in data set [4], the Fibrinogen is listed as 1.86 ± 0.40 g/L, the Prothrombin time was 10.03 ± 1.24 s, the Thrombin time came to 24.34 ± 1.37 s and the Thromboplastin time was 22.78 ± 2.34 s.

Turning to Urokinase, in data set [5], the Bleeding rate is recorded as 68.8^$ $ % and the “Number of bleeding animals” value stood at 11. Further, in the data set on gastric injury, the “Incidence of gastric injury” value was 100 ^$ $ %; the “Number of animals, gastric damage grade I” value stood at 1; the “Number of animals, gastric damage grade II” value was found to be 2; the “Number of animals, gastric damage grade III” value is listed as 2. In the data set on gastric injury, the “Number of animals, gastric damage grade IV” value was found to be 11 and the “Total number of animals with gastric injury” value was 16.

For the molecule `COc1ccc(-c2oc3c(CC=C(C)C)c(O[C@@H]4O[C@H](CO)[C@@H](O)[C@H](O)[C@H]4O)cc(O)c3c(=O)c2O[C@@H]2O[C@@H](C)[C@H](O)[C@@H](O)[C@H]2O)cc1` [Icariin, reference compound], the “Number of animals with cerebral hemorrhage” value is 5 in data set [6] and 6 in data set [7].
